Like-named read-outs stand apart in the source and are kept apart here.
System: Ctenocephalides felis (cat flea)
Assay: Contact activity against the adult cat flea (Table I)
Assay type: in vivo
Conditions: topical
Procedure: This test is designed to evaluate the contact activity of test compounds against the adult cat flea. Test compounds are dissolved in 100% acetone to 300, 100, 10 and 1 ppm. 100 μL of each of these dilutions is added to the bottom of a 20 mL glass scintillation vial with a pipettor. The vial is allowed to dry under a fume hood for 15 minutes. The bottom of the vial measures 4.909 cm^2. The amount of test compound applied by each dilution equals 6.2, 2.0, 0.2 and 0.02 μg/cm^2, respectively. Newly emerged adult cat fleas are anesthetized with CO2 to immobilize, and are counted into the scintillation vials with forceps. Five fleas are placed in each vial. These tests are done in replicates of two or three so that there are 10 to 15 fleas per rate/compound. Mortality readings are taken 4 and 24 hours after placing the fleas in the vials. […] Percent mortality is then calculated for each treatment.

[1] = 4 h, read-out: 4 Hour % Mortality
[2] = 24 h, read-out: 24 Hour % Mortality

Row | SMILES | mortality at 0.02 µg/cm2 [1] [%] | mortality at 0.2 µg/cm2 [1] [%] | mortality at 2 µg/cm2 [1] [%] | mortality at 6.2 µg/cm2 [1] [%] | mortality at 0.02 µg/cm2 [2] [%] | mortality at 0.2 µg/cm2 [2] [%] | mortality at 2 µg/cm2 [2] [%] | mortality at 6.2 µg/cm2 [2] [%]
1 | CCOc1ccc(C(/C(F)=C/Cc2cccc(Oc3ccccc3)c2)C2CC2)cc1 (racemic) [Compound 14, 1-[1-(p-Ethoxyphenyl)-2-fluoro-4-(m-phenoxyphenyl)-2-butenyl]cyclopropane, (R,S)-(Z)-] | 10 | 20 | 20 | 50 | 30 | 60 | 100 | 100
2 | F/C(=C\Cc1cccc(Oc2ccccc2)c1)C(c1ccc(F)cc1)C1CC1 (racemic) [Compound 15, 1-[2-Fluoro-1-(p-fluorophenyl)-4-(m-phenoxyphenyl)-2-butenyl]cyclopropane, (R,S)-(Z)-] |  | 44 | 80 | 100 |  | 78 | 100 | 100
3 | CCOc1ccc(C(/C(F)=C/Cc2ccc(F)c(Oc3ccc(F)cc3)c2)C2CC2)cc1 (racemic) [Compound 16, 1-{1-(p-Ethoxyphenyl)-2-fluoro-4-[4-fluoro-3-(p-fluorophenoxy)phenyl]-2-butenyl}cyclopropane, (R,S)-(Z)-] | 0 | 20 | 71 | 100 | 60 | 50 | 100 | 100
4 | CC(C)(C(F)=CCc1cccc(Oc2ccccc2)c1)c1ccc(Cl)cc1 [Compound 1, 4-(p-Chlorophenyl)-3-fluoro-4-methyl-1-(m-phenoxyphenyl)-2-pentene, (Z)- and (E)-(95:5)] | 5 | 5 | 10 | 0 | 10 | 20 | 35 | 53
5 | CC(C)(/C(F)=C/Cc1ccc(F)c(Oc2ccccc2)c1)c1ccc(Cl)cc1 [Compound 2, 4-(p-Chlorophenyl)-3-fluoro-1-(4-fluoro-3-phenoxyphenyl)-4-methyl-2-pentene, (Z)-] | 5 | 0 | 0 | 22 | 10 | 32 | 58 | 100
6 | F/C(=C\Cc1cccc(Oc2ccccc2)c1)C1(c2ccc(Cl)cc2)CC1 [Compound 3, 1-(p-Chlorophenyl)-1-[1-fluoro-3-(m-phenoxyphenyl)propenyl]cyclopropane, (Z)-] | 5 | 0 | 7 | 0 | 5 | 7 | 17 | 13
7 | F/C(=C\Cc1ccc(F)c(Oc2ccccc2)c1)C1(c2ccc(Cl)cc2)CC1 [Compound 4, 1-(p-Chlorophenyl)-1-[1-fluoro-3-(4-fluoro-3-phenoxyphenyl)propenyl]cyclopropane, (Z)-] | 5 | 7 | 0 | 3 | 16 | 14 | 21 | 28
8 | F/C(=C\Cc1cccc(Oc2ccccc2)c1)C(c1ccc(Cl)cc1)C1CC1 (stereo not shown) [Compound 6, 1-[1-(p-Chlorophenyl)-2-fluoro-4-(m-phenoxyphenyl)-2-butenyl]cyclopropane, (Z)-] | 0 | 0 | 56 | 80 | 8 | 28 | 88 | 100
9 | CC(C)C(/C(F)=C/Cc1ccc(F)c(Oc2ccccc2)c1)c1ccc(Cl)cc1 (stereo not shown) [Compound 7, 4-(p-Chlorophenyl)-3-fluoro-1-(4-fluoro-3-phenoxyphenyl)-5-methyl-2-hexene, (Z)-] | 0 | 0 | 0 | 0 | 10 | 0 | 0 | 100
10 | CC(C)C(/C(F)=C/Cc1cccc(Oc2ccccc2)c1)c1ccc(Cl)cc1 (stereo not shown) [Compound 8, 4-(p-Chlorophenyl)-3-fluoro-5-methyl-1-(m-phenoxyphenyl)-2-hexene, (Z)-] | 0 | 0 | 0 | 0 | 10 | 0 | 0 | 20
11 | CC(C)(C)C(/C(F)=C/Cc1cccc(Oc2ccccc2)c1)c1ccc(Cl)cc1 (stereo not shown) [Compound 9, 4-(p-Chlorophenyl)-3-fluoro-5-methyl-1-(m-phenoxyphenyl)-5-methyl-2-hexene, (Z)-] | 0 | 0 | 30 | 20 | 40 | 70 | 70 | 80
12 | CCOc1ccc(C(/C(F)=C/Cc2cccc(Oc3ccccc3)c2)C(C)C)cc1 (stereo not shown) [Compound 11, 4-(p-Ethoxyphenyl)-3-fluoro-5-methyl-1-(m-phenoxyphenyl)-2-hexene, (Z)-] | 0 | 10 | 30 | 60 | 10 | 40 | 90 | 90
13 | CCOc1ccc(C(/C(F)=C/Cc2cccc(Oc3ccc(F)cc3)c2)C(C)C)cc1 (stereo not shown) [Compound 12, 4-(p-Ethoxyphenyl)-3-fluoro-1-[m-(p-fluorophenoxy)phenyl]-5-methyl-2-hexene, (Z)-] | 0 | 0 | 10 | 33 | 0 | 10 | 30 | 78
14 | F/C(=C\Cc1cccc(Oc2ccc(F)cc2)c1)C(c1ccc(Cl)cc1)C1CC1 (stereo not shown) [Compound 13, 1-{1-(p-Chlorophenyl)-2-fluoro-4-[m-(p-fluorophenoxy)phenyl]-2-butenyl}cyclopropane, (Z)-] | 0 | 0 | 5 | 10 | 5 | 33 | 67 | 95
15 | CC(C)C(/C(F)=C(\F)Cc1ccc(F)c(Oc2ccccc2)c1)c1ccc(OC(F)(F)F)cc1 (stereo not shown) [Compound 17, 2,3-Difluoro-1-(4-fluoro-3-phenoxyphenyl)-5-methyl-4-[p-(trifluoromethoxy)phenyl]-2-hexene, (E)-] | 0 | 10 | 10 | 10 | 20 | 40 | 50 | 90

From US6235754A, “Methods and compositions for protecting animals and humans against attack and infestation by arthropod and helminth parasites” (American Cyanamid Company, priority 1999, dated 2001)
